Reference: patent publication US20250276993A1, “PSEUDO-DISACCHARIDE COMPOUNDS” (UNIVERSITEIT LEIDEN, priority 2022, published 2025)

Legend:
[1] = test system: HPSE in U87 glioma-cell lysates; test: HSPG digest assay, U87 cell lysates; type: cell-based, human; conditions: inhibitor applied before or after cell lysis, comparable H35S solubilization profiles
Description: ECM coated 35 mm culture dishes containing ^35S labelled HS were prepared as previously described (Vlodavsky et al., Curr. Protoc. Cell. Biol., Chapter 10, Unit 10, 14). Briefly, bovine corneal endothelial cells were plated at an initial density of 2×10^5 cells/ml, with 4% dextran T-40 (Sigma) included in the growth medium. Na2^35SO4 (25 μCi/ml) was added to the incubation medium on days 2 and 5 after seeding. On day 12, subendothelial ECM is exposed by dissolving the cells with PBS containing 0.5% Triton X-100 and 20 mM NH4OH, followed by four washes with PBS. For HS-degradation assays, ECM coated dishes were incubated with 200 ng recombinant HPSE in 1 mL reaction mixture (10 mM buffer Phosphate-Citrate pH 6.0, 50 mM NaCl, 1 mM DTT, 1 mM CaCl2) containing HPSE inhibitors or DMSO control. Plates were incubated at 37° C. for 5 h, then assay medium collected and applied to a 0.9×30 cm Sepharose 6B size exclusion column. The Sepharose 6B column was eluted with PBS, and ^35S radioactivity of 0.2 mL fractions quantitated using a liquid scintillation analyzer (Packard BioScience). Digest assays with U87 cell lysates were carried out in a similar fashion, except plates were incubated for 18 h with cell extracts prepared from 1×10^6 U87 glioma cells lysed by 3× freeze/thaw cycles.

rHPSE = target: T1, rHPSE (Homo sapiens, UniProt Q9Y251); test: in-gel competitive ABPP, recombinant HPSE; type: biochemical; conditions: apparent IC50, in-gel competitive ABPP-based assay; read-out: In vitro IC50 rHPSE
T1 sequence (Q9Y251 36-109 limits assumed): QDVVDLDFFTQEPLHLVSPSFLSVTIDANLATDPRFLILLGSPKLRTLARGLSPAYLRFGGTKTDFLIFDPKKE
T1 sequence (Q9Y251 158-543 limits assumed): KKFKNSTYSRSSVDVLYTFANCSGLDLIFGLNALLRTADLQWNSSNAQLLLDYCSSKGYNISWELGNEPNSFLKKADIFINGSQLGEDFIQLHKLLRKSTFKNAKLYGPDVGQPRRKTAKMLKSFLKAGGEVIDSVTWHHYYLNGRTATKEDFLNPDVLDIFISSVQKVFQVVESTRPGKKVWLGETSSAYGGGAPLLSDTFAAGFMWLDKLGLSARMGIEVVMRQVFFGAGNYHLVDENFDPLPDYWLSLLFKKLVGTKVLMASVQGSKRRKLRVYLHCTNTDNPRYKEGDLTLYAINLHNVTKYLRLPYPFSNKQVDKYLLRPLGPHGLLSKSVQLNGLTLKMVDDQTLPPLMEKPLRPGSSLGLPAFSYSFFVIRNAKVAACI
Description: ABP labelling reactions were carried out in Mcllvaine buffer (pH 5.5), 300 mM NaCl. For recombinant proteins 200 fmol of EcGH2, BpHep, AcGH79, HPSE or proHPSE was used (20 nM in 10 μl final reaction volume). For labeling cell lysates, 4-20 μg total protein was used. Labeling reactions were initiated by the addition of ABP compounds 7, 8 or 9 to a final concentration of 100 nM (unless otherwise specified), before incubation for 30 min at 37° C. with shaking. Following labeling, samples were denatured by boiling with Laemmli buffer for 5 min and resolved by SDS-PAGE. Gels were scanned using Typhoon-5 laser scanner platform (Cytiva), using the λEX 635 nm laser and 670BP30 emission filter. For competitive ABPP (cABPP) experiments, protein mixtures were preincubated with inhibitor (or buffer only control) for 1 h at 37° C. with shaking, before the addition of 7 to a final concentration of 100 nM, and subsequent incubation for 30 min at 37° C. with shaking. SDS-PAGE and analysis steps were carried out as above. For quantitative measurements, fluorescently labeled band intensities were calculated using Imagequant (Cytiva), and normalized to the corresponding band in the inhibitor free control lane. cABPP plots were prepared and analyzed using SigmaPlot 14.0 (Systat).
Competitive activity of compounds 2, 12 and 13 were investigated using cABPP Assay 2.
To gain insight into HPSE structure-activity relationships, apparent HPSE inhibition was tested for cyclitol 12, its disaccharidic analogue 13 and parent HPSE inhibitor 2 (FIG. 7a). […] Conversely, 13 could inactivate rHPSE down to 2 μM inhibitor concentration similar to 2.

[2] = test system: 4T1 mouse mammary carcinoma cells; test: 4T1 breast cancer lung metastasis model; type: in vivo, Balb/c mice; conditions: 2: 300 nmol/mouse i.p.; SST0001: 150 μg/mouse i.p.; bioluminescence, 14 day timepoint
Description: 4T1 breast cancer—Twenty minutes before tumor cell inoculation, Balb/c mice (n=5) were injected intraperitoneally with vehicle alone (PBS), compound 2 (300 nmol/mouse), or SST0001 (150 μg/mouse). Mice were subsequently intravenously inoculated with 1.5×10^5 luciferase tagged 4T1 mouse mammary carcinoma cells/mouse in a volume of 100 μL, alongside 20 μM 2 or 10 μg SST0001.
Bioluminescence imaging of lung metastases produced by luciferase-expressing 4T1 cells was carried out using a highly sensitive, cooled charge-coupled device camera assembled in a specimen box (IVIS; Xenogen Corp, Hopkinton, MA). For this, the tumor-bearing mice were intraperitoneally administered with a luciferase substrate D-luciferin at a dose of 150 mg/kg body weight. The mice were anesthetized and kept in a camera box followed by continuous exposure to isoflurane (EZAnesthesia, Palmer, PA, USA). The tumor burden was quantified using Living Image software (Xenogen) (U. Barash et al., Journal of the National Cancer Institute 110, 1102-1114, 2018; M. Weissmann et al., Proc Natl Acad Sci, 113, 704-709, 2016)
The compounds of the invention were tested against a B16 murine melanoma experimental metastasis model, which measures the formation of metastatic lung tumors by B16 cancer cells after intravenous (i.v.) injection. […]

HPSE = target: T2, HPSE (Homo sapiens, UniProt Q9Y251); test: cABPP Assay 1, recombinant HPSE; type: biochemical; conditions: 1 h preincubation at 37° C., pH 5.5, 100 nM ABP 7
T2 sequence (Q9Y251 36-109 limits assumed): T1 sequence (Q9Y251 36-109 limits assumed)
T2 sequence (Q9Y251 158-543 limits assumed): T1 sequence (Q9Y251 158-543 limits assumed)

B16-BL6 melanoma cells = test: B16 melanoma experimental lung metastasis model; type: in vivo, C57BL/J6 mice; conditions: after 14 days; 2: 300 nmol/mouse i.p.; SST0001: 150 μg/mouse i.p.; vs PBS-only control
Description: B16 melanoma—Twenty minutes before tumor cell inoculation, C57BL/J6 mice (n=5) were injected intraperitoneally with vehicle alone (PBS), compound 2 (300 nmol/mouse), or SST0001 (150 μg/mouse). Mice were subsequently intravenously inoculated with 1.5×10^5 B16-BL6 melanoma cells/mouse in a volume of 100 μL, alongside 20 μM 2 or 10 μg SST0001. Mice were sacrificed after 14 days and the lungs were dissected, photographed and evaluated for the number of metastatic foci/lung.
The compounds of the invention were tested against a B16 murine melanoma experimental metastasis model, which measures the formation of metastatic lung tumors by B16 cancer cells after intravenous (i.v.) injection. Additionally, the compounds of the invention were tested against a second cancer model—4T1 murine mammary carcinoma, which also metastasizes to the lungs upon injection.

CC(=O)NC1C(O)[C@H](O)C(CO)O[C@@H]1O[C@H]1C(O)C(O)[C@@H]2OC2C1C(=O)O (stereo partly drawn) [Compound 2, 4-O-(2-N-acetyl-2-deoxy-D-glucopyranosyl)-glucurono-cyclophellitol]
cell penetration / inhibition of intracellular HPSE pool [1]: can penetrate cells to inhibit the intracellular HPSE pool
IC50 (rHPSE): 300 ± 200 nM
incidence of lung metastases (4T1) [2]: marked reduction in the incidence of lung metastases
HPSE inhibition (abrogation of labelling by ABP 7) (HPSE): inhibited HPSE at nanomolar concentrations
lung metastases (B16) (B16-BL6 melanoma cells): marked reduction in lung growths
